Assay results as given in patent EP2292587A1, “PHARMACEUTICAL COMPOSITION FOR INHIBITING THE TRANSCRIPTION FACTOR INDUCIBLE BY HYPOXIA, MODULATORS OF PATHOLOGICAL PROCESSES OF ANGIOGENESIS, ONCOGENESIS, INFLAMMATION, APOPTOSIS, AND CELLULAR THERAPY” (Fundacion De La Comunidad Valenciana Centro De …, priority 2008, dated 2009).

Legend:
[1] = test system: Sox2, Oct4, Nanog, TGF-alpha, Notch1; assay: expression of undifferentiated state markers in epSPCs (sqPCR, Western blot); assay type: cell-based, rat
Procedure: The primary culture of adult spinal cord ependymal neural progenitors (epSPC) was performed according to the conditions already set forth in Example 35.1.
Detection of the transcriptional and transductional expression levels of genes responsible for maintaining the undifferentiated state, Sox2, Oct4, Nanog, TGF-alpha: Total RNA was isolated using the commercial kit RNAeasy (Qiagen) and following the manufacturer's instructions. 1 µg of total RNA of each sample was retrotranscribed using the commercial kit Reverse Transcription Reagent (Applied Biosystem). The semiquantitative polymerase chain reaction (sqPCR) was carried out using the primers detailed below, for the amplification of the messenger RNAs of Sox2, Oct4, Nanog, TGF-alpha and GAPDH. The sqPCR was developed in an Eppendorf thermal cycler in a final volume of 50 µl, using 1 U of Taq Polymerase, 40 ng of cDNA (equivalent amount of total RNA), and 300 nM of each primer. The program chosen for the amplification was: [95°C, 3 min] x1, [55°C, 30 sec, 72°C, 5 min, 95°C 30 sec] x 35 and 72°C 10 min. The expression levels were viewed in a 1% agarose gel in 1x TAE buffer stained with ethidium bromide. The changes of expression due to the loading difference were corrected by the differential expression of the GAPDH constitutive expression gene. The experiments were performed in triplicate (with cells from three different rats).
The levels of proteins of the undifferentiated state markers Sox2, Oct4, Nanog and Notch1 were determined by immunological analysis (Western Blot) following the methodology described in Example 35.1. The primary antibodies for the detection of Sox2, Oct4, Nanog and Notch1 were acquired from Abcam (UK) and the expression of beta-actin (antibody acquired in Sigma Aldrich Co., UK) served as a loading control.

[2] = test system: Sox2 and Oct3/4; assay: qPCR of Sox2 and Oct3/4 in H9 hESCs; assay type: cell-based, human; conditions: 500 nM, 48 hours, hypoxia (1% O2)
Procedure: Culture of the H9 human embryonic cell (hESC) line: To maintain and propagate the hESC line (up to no more than 70 passes), the hESCs are cultured on a monolayer of mouse fibroblasts inactivated with mitomycin C (Sigma Aldrich, Sweden) (Thomson et al., [1998]). To study the transcriptional changes of SOx2 and Oct3/4, the undifferentiated colonies of hESCs were transferred, by mechanical dissociation, to a culture plate coated with a thin layer of Matrigel® and are cultured in the presence of conditioned medium. The conditioned medium is obtained from the culture of confluent and inactivated mouse fibroblasts, seeded on plates coated with gelatin (0.1 %; Sigma).
Using the experimental conditions described in Example 35, the procedure was the same including in this case the TaqMan probes for human Sox2, Oct3/4 and GAPDH (Sox2: Hs01053049_s1; Oct3/4:Hs01895061_u1; GAPDH: Hs99999905_m1). […] The expression levels of both messenger RNAs are induced under hypoxic conditions versus normoxic conditions (high oxygen culture conditions ~ 20% O2),

[3] = test system: HT29; assay: Western blot of DNA damage response proteins in HT29; assay type: cell-based, human; conditions: 0.25 or 0.5 µM, 24 hours
Description: According to the results obtained by the Western blotting technique, FM19G11 triggers a DNA damage response (DDR) in human colon cancer cells (HT29).

[4] = test system: mouse neurospheres (neural stem cells); assay: microsatellite genomic instability in neurospheres; assay type: cell-based
Procedure: By using specific fluorescence-labeled primers for microsatellite sequence markers, the genomic stability of neurospheres in normoxia (Nx), hypoxia (Hx) or hypoxia+FM19G11 (Hx+19G11) was analyzed. […] The treatment with FM19G11 enabled the recovery of the normoxia profiles (used as a reference or control), thus preventing the genomic instability caused by hypoxia.

[5] = test system: PHD3, HIF1α and HIF2α; assay: Western blot of HIF target proteins in HeLa9XHRE-LUC cells; assay type: cell-based; design: dose or concentration left out as unconfirmed; conditions: hypoxic conditions, 9 hours
Procedure: The HeLa9XHRE/LUC cells were lysed with a hypotonic buffer (10 mM Tris-HCl, pH 7.5, 1.5 mM MgCl2, I mM KCIO, 2 mM DTT, 1 mM Pefabloc, 2 mM sodium vanadate, 4 µg/ml pepstatin, 4 µg/ml leupeptin, and 4 µg/ml aprotinin), preserved 20 minutes in ice and subsequently centrifuged for 10 minutes at 1,200 rpm, collecting the supernatant and preserving it at -20°C until its use. The quantification of the proteins was performed with colorimetric Coomassie blue method described by Bradford. A commercial system was used following the manufacturer's instructions (PIERCE Chem Co., Rockford III. USA). Bovine serum albumin (A-7906, SIGMA Chem Co., St. Louis MO, USA) was used to generate a standard curve (0-200 µg of protein). Five microliters of each sample were pipetted in a 96-well plate and […] of the Coomassie solution were added and it was maintained in darkness for 5 minutes at room temperature and the absorbance at OD 595 nm was measured in a spectrophotometer. By means of the Graph-Pad statistical program, the standard line was calculated and the values were extrapolated for each of the samples. The final values were expressed as mcg/mcl of protein. The electrophoresis of proteins of the extract was carried out in polyacrylamide gels under denaturing conditions (SDS-PAGE). A commercial mixture of proteins for low molecular mass polypeptides (Amersham) was used as a molecular size standard. […]

Cc1ccc(C(=O)COC(=O)c2cccc(NC(=O)c3ccc([N+](=O)[O-])cc3[N+](=O)[O-])c2)cc1 [FM19G11, 2-oxo-2-(p-tolyl)ethyl 3-((2,4-dinitro)benzamido)benzoate]
messenger RNA of Sox2 and Oct4 and their target genes Nanog and TGF-α ([1]; 500 nM, 48 hours, 1% O2): down-regulation
expression of Sox2, Oct4, Nanog and Notch1 ([1]; 500 nM, 48 hours, normoxic (~20% O2)): significantly induces
expression of both proteins, Sox2 and Oct4 ([1]; increasing concentrations, 1% O2): inhibits in a dose-dependent manner
expression of the two isoforms of HIFα, p300, Sox2, Oct3/4 in ependymal cells ([1]; physical hypoxic conditions): decrease
expression of both Sox2 and Oct3/4 (mRNA) [2]: significantly inhibits
phosphorylation of DDR proteins (H2AX, MLH1, MSH6, BRCA1, ATM, ATR, CHK1, CHK2, p53) [3]: efficiently increased the phosphorylation
genomic instability caused by hypoxia (microsatellite markers mBAT59, mBAT67) [4]: prevented
expression of HIF 1α and 2α, as well as of PHD3 [5]: decrease
